According to the supplement of paper PMC10307832:

Columns and labels:
Experiment in all cases: relative viability (nuclei count vs DMSO), 5 days (fraction); higher = more cells survive
[1] = compound: CCN(CCO)CCCC(C)Nc1ccnc2cc(Cl)ccc12 [Hydroxychloroquine] + O=C(c1cc(Cc2n[nH]c(=O)c3ccccc23)ccc1F)N1CCN(C(=O)C2CC2)CC1 [Olaparib] (partner 8 µM)
Method in brief: (§1)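 Cells from lung cancer lines were seeded into 1536-well plates and, one day later, dosed by pin tool. Treatments were either a single drug or a fixed dose of an anchor drug with five library-drug doses (not always all listed) in √10 steps. After 5 days, nuclei were stained in a one-step fixation (final 0.05% Triton X-100, 1% formaldehyde, 1 ug/ml Hoechst) and counted on 4× images, and relative viability is the treated-to-vehicle nuclei ratio, as the median of duplicate plates.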

[2] = compound: CCN(CCO)CCCC(C)Nc1ccnc2cc(Cl)ccc12 [Hydroxychloroquine] + CC(=O)c1c(C)c2cnc(Nc3ccc(N4CCNCC4)cn3)nc2n(C2CCCC2)c1=O [Palbociclib] (partner 0.5 µM)
Method in brief: as §1

[3] = compound: CCN(CCO)CCCC(C)Nc1ccnc2cc(Cl)ccc12 [Hydroxychloroquine] + Cc1nc(NC(=O)N2CCC[C@H]2C(N)=O)sc1-c1ccnc(C(C)(C)C(F)(F)F)c1 [Alpelisib] (partner 2 µM)
Method in brief: as §1

[4] = compound: CCN(CCO)CCCC(C)Nc1ccnc2cc(Cl)ccc12 [Hydroxychloroquine] + Nc1nc2[nH]cc(CCc3ccc(C(=O)N[C@@H](CCC(=O)O)C(=O)O)cc3)c2c(=O)[nH]1 [Pemetrexed] (partner 0.2 µM)
Method in brief: as §1

## HCC-366
[1]; first compound 0.5 µM
  relative viability: 0.312
[1]; first compound 1.581 µM
  relative viability: 0.362
[1]; first compound 5 µM
  relative viability: 0.354
[1]; first compound 15.81 µM
  relative viability: 0.342
[1]; first compound 50 µM
  relative viability: 0.375
[2]; first compound 0.5 µM
  relative viability: 0.324
[2]; first compound 1.581 µM
  relative viability: 0.406
[2]; first compound 5 µM
  relative viability: 0.366
[2]; first compound 15.81 µM
  relative viability: 0.381
[2]; first compound 50 µM
  relative viability: 0.665
[3]; first compound 0.5 µM
  relative viability: 0.569
[3]; first compound 1.581 µM
  relative viability: 0.375
[3]; first compound 5 µM
  relative viability: 0.368
[3]; first compound 15.81 µM
  relative viability: 0.434
[3]; first compound 50 µM
  relative viability: 0.482
[4]; first compound 0.5 µM
  relative viability: 0.157
[4]; first compound 1.581 µM
  relative viability: 0.151
[4]; first compound 5 µM
  relative viability: 0.14
[4]; first compound 15.81 µM
  relative viability: 0.18
[4]; first compound 50 µM
  relative viability: 0.177

## HCC-827
[1]; first compound 0.5 µM
  relative viability: 0.645
[1]; first compound 1.581 µM
  relative viability: 0.618
[1]; first compound 5 µM
  relative viability: 0.591
[1]; first compound 15.81 µM
  relative viability: 0.54
[1]; first compound 50 µM
  relative viability: 0.561
[2]; first compound 0.5 µM
  relative viability: 0.413
[2]; first compound 1.581 µM
  relative viability: 0.456
[2]; first compound 5 µM
  relative viability: 0.467
[2]; first compound 15.81 µM
  relative viability: 0.466
[2]; first compound 50 µM
  relative viability: 0.521
[3]; first compound 0.5 µM
  relative viability: 1.05
[3]; first compound 1.581 µM
  relative viability: 1.03
[3]; first compound 5 µM
  relative viability: 0.939
[3]; first compound 15.81 µM
  relative viability: 1.03
[3]; first compound 50 µM
  relative viability: 0.979
[4]; first compound 0.5 µM
  relative viability: 0.225
[4]; first compound 1.581 µM
  relative viability: 0.275
[4]; first compound 5 µM
  relative viability: 0.259
[4]; first compound 15.81 µM
  relative viability: 0.259
[4]; first compound 50 µM
  relative viability: 0.23

## HOP-62
[1]; first compound 0.5 µM
  relative viability: 0.368
[1]; first compound 1.581 µM
  relative viability: 0.232
[1]; first compound 5 µM
  relative viability: 0.443
[1]; first compound 15.81 µM
  relative viability: 0.496
[1]; first compound 50 µM
  relative viability: 0.394
[2]; first compound 0.5 µM
  relative viability: 0.486
[2]; first compound 1.581 µM
  relative viability: 0.429
[2]; first compound 5 µM
  relative viability: 0.444
[2]; first compound 15.81 µM
  relative viability: 0.487
[2]; first compound 50 µM
  relative viability: 0.548
[3]; first compound 0.5 µM
  relative viability: 0.997
[3]; first compound 1.581 µM
  relative viability: 1.18
[3]; first compound 5 µM
  relative viability: 1.15
[3]; first compound 15.81 µM
  relative viability: 1
[3]; first compound 50 µM
  relative viability: 1.04
[4]; first compound 0.5 µM
  relative viability: 0.331
[4]; first compound 1.581 µM
  relative viability: 0.312
[4]; first compound 5 µM
  relative viability: 0.33
[4]; first compound 15.81 µM
  relative viability: 0.344
[4]; first compound 50 µM
  relative viability: 0.343

## IA-LM
[1]; first compound 0.5 µM
  relative viability: 0.756
[1]; first compound 1.581 µM
  relative viability: 0.887
[1]; first compound 5 µM
  relative viability: 0.8
[1]; first compound 15.81 µM
  relative viability: 0.892
[1]; first compound 50 µM
  relative viability: 0.754
[3]; first compound 0.5 µM
  relative viability: 0.878
[3]; first compound 1.581 µM
  relative viability: 0.377
[3]; first compound 5 µM
  relative viability: 0.811
[3]; first compound 15.81 µM
  relative viability: 0.607
[3]; first compound 50 µM
  relative viability: 0.887

## LC-2-ad
[1]; first compound 0.5 µM
  relative viability: 0.673
[1]; first compound 1.581 µM
  relative viability: 0.664
[1]; first compound 5 µM
  relative viability: 0.738
[1]; first compound 15.81 µM
  relative viability: 0.725
[1]; first compound 50 µM
  relative viability: 0.772
[2]; first compound 0.5 µM
  relative viability: 0.454
[2]; first compound 1.581 µM
  relative viability: 0.454
[2]; first compound 5 µM
  relative viability: 0.486
[2]; first compound 15.81 µM
  relative viability: 0.555
[2]; first compound 50 µM
  relative viability: 0.476
[3]; first compound 0.5 µM
  relative viability: 0.873
[3]; first compound 1.581 µM
  relative viability: 0.851
[3]; first compound 5 µM
  relative viability: 0.904
[3]; first compound 15.81 µM
  relative viability: 0.873
[3]; first compound 50 µM
  relative viability: 0.93
[4]; first compound 0.5 µM
  relative viability: 0.272
[4]; first compound 1.581 µM
  relative viability: 0.273
[4]; first compound 5 µM
  relative viability: 0.244
[4]; first compound 15.81 µM
  relative viability: 0.261
[4]; first compound 50 µM
  relative viability: 0.282

## LCLC-97TM1
[1]; first compound 0.5 µM
  relative viability: 0.529
[1]; first compound 1.581 µM
  relative viability: 0.371
[1]; first compound 5 µM
  relative viability: 0.324
[1]; first compound 15.81 µM
  relative viability: 0.453
[1]; first compound 50 µM
  relative viability: 0.29
[2]; first compound 0.5 µM
  relative viability: 0.223
[2]; first compound 1.581 µM
  relative viability: 0.227
[2]; first compound 5 µM
  relative viability: 0.313
[2]; first compound 15.81 µM
  relative viability: 0.275
[2]; first compound 50 µM
  relative viability: 0.21
[3]; first compound 0.5 µM
  relative viability: 0.286
[3]; first compound 1.581 µM
  relative viability: 0.223
[3]; first compound 5 µM
  relative viability: 0.262
[3]; first compound 15.81 µM
  relative viability: 0.244
[3]; first compound 50 µM
  relative viability: 0.286
[4]; first compound 0.5 µM
  relative viability: 0.199
[4]; first compound 1.581 µM
  relative viability: 0.226
[4]; first compound 5 µM
  relative viability: 0.169
[4]; first compound 15.81 µM
  relative viability: 0.179
[4]; first compound 50 µM
  relative viability: 0.175

## LCLC-103H
[1]; first compound 0.5 µM
  relative viability: 0.754
[1]; first compound 1.581 µM
  relative viability: 0.688
[1]; first compound 5 µM
  relative viability: 0.84
[1]; first compound 15.81 µM
  relative viability: 0.766
[1]; first compound 50 µM
  relative viability: 0.78
[2]; first compound 0.5 µM
  relative viability: 0.498
[2]; first compound 1.581 µM
  relative viability: 0.496
[2]; first compound 5 µM
  relative viability: 0.524
[2]; first compound 15.81 µM
  relative viability: 0.461
[2]; first compound 50 µM
  relative viability: 0.469
[3]; first compound 0.5 µM
  relative viability: 1.02
[3]; first compound 1.581 µM
  relative viability: 0.907
[3]; first compound 5 µM
  relative viability: 0.965
[3]; first compound 15.81 µM
  relative viability: 0.888
[3]; first compound 50 µM
  relative viability: 0.953
[4]; first compound 0.5 µM
  relative viability: 0.439
[4]; first compound 1.581 µM
  relative viability: 0.504
[4]; first compound 5 µM
  relative viability: 0.368
[4]; first compound 15.81 µM
  relative viability: 0.455
[4]; first compound 50 µM
  relative viability: 0.473

## LK-2
[1]; first compound 0.5 µM
  relative viability: 0.734
[1]; first compound 1.581 µM
  relative viability: 0.719
[1]; first compound 5 µM
  relative viability: 0.659
[1]; first compound 15.81 µM
  relative viability: 0.648
[1]; first compound 50 µM
  relative viability: 0.874
[2]; first compound 0.5 µM
  relative viability: 0.884
[2]; first compound 1.581 µM
  relative viability: 0.832
[2]; first compound 5 µM
  relative viability: 0.762
[2]; first compound 15.81 µM
  relative viability: 0.809
[2]; first compound 50 µM
  relative viability: 0.697
[3]; first compound 0.5 µM
  relative viability: 1.02
[3]; first compound 5 µM
  relative viability: 1.26
[3]; first compound 15.81 µM
  relative viability: 1.27
[3]; first compound 50 µM
  relative viability: 1.24
[4]; first compound 0.5 µM
  relative viability: 0.299
[4]; first compound 1.581 µM
  relative viability: 0.261
[4]; first compound 5 µM
  relative viability: 0.256
[4]; first compound 15.81 µM
  relative viability: 0.274
[4]; first compound 50 µM
  relative viability: 0.206

## LOU-NH91
[1]; first compound 0.5 µM
  relative viability: 0.945
[1]; first compound 1.581 µM
  relative viability: 0.846
[1]; first compound 5 µM
  relative viability: 0.888
[1]; first compound 15.81 µM
  relative viability: 0.869
[1]; first compound 50 µM
  relative viability: 0.961
[2]; first compound 0.5 µM
  relative viability: 0.534
[2]; first compound 1.581 µM
  relative viability: 0.562
[2]; first compound 5 µM
  relative viability: 0.5
[2]; first compound 15.81 µM
  relative viability: 0.55
[2]; first compound 50 µM
  relative viability: 0.531
[3]; first compound 0.5 µM
  relative viability: 0.697
[3]; first compound 1.581 µM
  relative viability: 0.617
[3]; first compound 5 µM
  relative viability: 0.741
[3]; first compound 15.81 µM
  relative viability: 0.745
[3]; first compound 50 µM
  relative viability: 0.758
[4]; first compound 0.5 µM
  relative viability: 0.359
[4]; first compound 1.581 µM
  relative viability: 0.413
[4]; first compound 5 µM
  relative viability: 0.451
[4]; first compound 15.81 µM
  relative viability: 0.386
[4]; first compound 50 µM
  relative viability: 0.427
